Six compounds from patent publication US20240238423A9, “TETRAHYDROISOQUINOLINE HETEROBIFUNCTIONAL BCL-XL DEGRADERS” (Treeline Biosciences, Inc., priority 2022, published 2024) can be followed below.

Where two headings read alike, the source gives them in different places.

This assay concerns the target T1, Human BCL-XL protein (N-terminal HiBiT tagged BCL-XL in HT1080 cells) (Homo sapiens, UniProt Q07817).
T1 construct: expressed in transfected cells; host or cells: HT-1080 (ATCC CCL-121), stably transduced with lentivirus pLV-UBC-N-HiBiT-BCL-XL-PGK-puro and selected with puromycin
In words: HiBiT based degradation assay. The following applies: HT1080 cells expressing HiBiT-BCL-XL; for Ymin (24 h) / Ymin (6 h): BCL-XL degradation normalized with DMSO control; for DC50: BCL-XL degradation. The class given is cell-based. In short, it runs like this:
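This HiBiT degradation assay measured loss of BCL-XL in HT1080 cells that stably express an N-terminal HiBiT-BCL-XL fusion delivered by lentivirus. Cells were added to compound-spotted 384-well plates, and luminescence was read on a PHERAstar FSX reader. Signal was expressed relative to DMSO controls, curves were fitted by four-parameter logistic regression, and for hook-shaped curves the Ymin point served as the bottom plateau when calculating EC50.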

T1 sequence (Q07817 whole entry): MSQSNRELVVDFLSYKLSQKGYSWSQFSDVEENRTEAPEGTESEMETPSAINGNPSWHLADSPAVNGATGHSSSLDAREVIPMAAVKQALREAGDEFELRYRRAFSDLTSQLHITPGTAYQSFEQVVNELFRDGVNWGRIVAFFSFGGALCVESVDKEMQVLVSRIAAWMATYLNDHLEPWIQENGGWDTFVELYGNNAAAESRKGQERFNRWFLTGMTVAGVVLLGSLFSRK

As for `Cc1c(OCCC2CCN(CCN3CCN(c4cccc5c(C6CCC(=O)NC6=O)nn(C)c45)CC3)CC2)cccc1-c1ccc(N2CCc3cccc(C(=O)Nc4nc5ccccc5s4)c3C2)nc1C(=O)O` (centres unmarked) [Compound 233, 6-[8-(1,3-benzothiazol-2-ylcarbamoyl)-3,4-dihydro-1H-isoquinolin-2-yl]-3-[3-[2-[1-[2-[4-[3-(2,6-dioxo-3-piperidyl)-1-methyl-indazol-7-yl]piperazin-1-yl]ethyl]-4-piperidyl]ethoxy]-2-methyl-phenyl]pyridine-2-carboxylic acid], the “Ymin (24 h)” value (24 h) is reported as “A (Ymin < 50%)”. The DC50 (24 h, read-out: EC50 (24 h)) is less than 100 nM.

Turning to `Cc1cc(OCCC[C@@H]2CCN(CC(=O)Nc3ccc4c(C5CCC(=O)NC5=O)nn(C)c4c3)[C@H](C)C2)ccc1-c1ccc(N2CCc3cccc(C(=O)Nc4nc5ccccc5s4)c3C2)nc1C(=O)O` (stereo partly drawn) [Compound 344b, 6-[8-(1,3-benzothiazol-2-ylcarbamoyl)-3,4-dihydro-1H-isoquinolin-2-yl]-3-[4-[3-[(2R,4R)-1-[2-[[3-(2,6-dioxo-3-piperidyl)-1-methyl-indazol-6-yl]amino]-2-oxo-ethyl]-2-methyl-4-piperidyl]propoxy]-2-methyl-phenyl]pyridine-2-carboxylic acid], the “Ymin (24 h)” value (24 h) is listed as “A (Ymin < 50%)”. Further, the DC50 (24 h, read-out: EC50 (24 h)) is less than 100 nM.

On to `Cn1nc(C2CCC(=O)NC2=O)c2ccc(NC(=O)CN3CCN(CCOc4cccc(-c5ccc(N6CCc7cccc(C(=O)Nc8nc9ccccc9s8)c7C6)nc5C(=O)O)c4C(F)(F)F)CC3)cc21` (centres unmarked) [Compound 126, 6-(8-(benzo[d]thiazol-2-ylcarbamoyl)-3,4-dihydroisoquinolin-2(1H)-yl)-3-(3-(2-(4-(2-((3-(2,6-dioxopiperidin-3-yl)-1-methyl-1H-indazol-6-yl)amino)-2-oxoethyl)piperazin-1-yl)ethoxy)-2-(trifluoromethyl)phenyl)picolinic acid], for which the “Ymin (6 h)” value (6 h) is reported as “B (50% ≤ Ymin < 70%)”. For the setting “6 h, read-out: EC50 (6 h)”, the DC50 is 100 to 1000 nM.

As for `Cc1c(OCCCCCCCCCN2CCN(c3ccc4c(C5CCC(=O)NC5=O)nn(C)c4c3)CC2)cccc1-c1ccc(N2CCc3cccc(C(=O)Nc4nc5ccccc5s4)c3C2)nc1C(=O)O` (centres unmarked) [Compound 155, 6-[8-(1,3-benzothiazol-2-ylcarbamoyl)-3,4-dihydro-1H-isoquinolin-2-yl]-3-[3-[9-[4-[3-(2,6-dioxo-3-piperidyl)-1-methyl-indazol-6-yl]piperazin-1-yl]nonoxy]-2-methyl-phenyl]pyridine-2-carboxylic acid], the “Ymin (6 h)” value (6 h) is listed as “B (50% ≤ Ymin < 70%)”. Also, the “Ymin (24 h)” value (24 h) is “A (Ymin < 50%)”. For the same compound, the DC50 by setting is: (6 h, read-out: EC50 (6 h)) less than 100 nM; (24 h, read-out: EC50 (24 h)) less than 100 nM.

Turning to `Cc1c(O[C@H]2CC[C@H](CCCCN3CCC[C@@H](c4cccc5c(C6CCC(=O)NC6=O)nn(C)c45)C3)CC2)cccc1-c1ccc(N2CCc3cccc(C(=O)Nc4nc5ccccc5s4)c3C2)nc1C(=O)O` (single isomer, unassigned) [Compound 351b], the “Ymin (24 h)” value (24 h) is on record as “A (Ymin < 50%)”. Besides, for the setting “24 h, read-out: EC50 (24 h)”, the DC50 was less than 100 nM.

`Cc1c(O[C@H]2CC[C@H](CCCN3CCN(c4ccc5c(C6CCC(=O)NC6=O)nn(C)c5c4)C[C@H]3C(F)(F)F)CC2)cccc1-c1ccc(N2CCc3cccc(C(=O)Nc4nc5ccccc5s4)c3C2)nc1C(=O)O` (stereo partly drawn) [Compound 347b, 6-(8-(benzo[d]thiazol-2-ylcarbamoyl)-3,4-dihydroisoquinolin-2(1H)-yl)-3-(3-(((1r,4r)-4-(3-((2S)-4-(3-(2,6-dioxopiperidin-3-yl)-1-methyl-1H-indazol-6-yl)-2-(trifluoromethyl)piperazin-1-yl)propyl)cyclohexyl)oxy)-2-methylphenyl)picolinic acid]: the “Ymin (24 h)” value (24 h) was “A (Ymin < 50%)”. For the same compound, the DC50 (24 h, read-out: EC50 (24 h)) was less than 100 nM.
